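Following 48 hours of exposure in 96-well plates, responses at five concentrations were used to interpolate endpoints linearly. GI50 = concentration required for 50% inhibition of growth.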 Activity calls are given as the source filed them. No stated cut-off is given here; in the data, active = GI50 up to about 1.1 µM and inactive = higher.
Key:
Experiment in all cases: inhibition of tumour cell growth, NCI panel, 48 h
[1] = system: ACHN
[2] = system: DU-145
[3] = system: HT-29
[4] = system: KM12
[5] = system: MOLT-4
[6] = system: Malme-3M
[7] = system: NCI-H226
[8] = system: NCI-H522
[9] = system: NCI/ADR-RES
[10] = system: OVCAR-4
[11] = system: OVCAR-8
[12] = system: PC-3
[13] = system: SF-539
[14] = system: SK-MEL-2
[15] = system: SW-620
[16] = system: UACC-257
[17] = system: UACC-62
[18] = system: SF-268
[19] = system: Hs-578T

Measured: GI50

CCN(CC)CCCNc1nc(=O)[nH]c(C)c1C(=O)Nc1ccc2c(c1)c1ccccc1n2CC
inactive: [1] > 100 µM | [2] > 100 µM | [3] > 100 µM | [4] > 100 µM | [5] > 100 µM | [6] > 100 µM | [7] > 100 µM | [8] > 100 µM | [9] > 100 µM | [10] > 100 µM | [11] > 100 µM | [12] > 100 µM | [13] > 100 µM | [14] > 100 µM | [15] > 100 µM | [16] > 100 µM | [17] > 100 µM

Cc1nc2ccccc2c(=O)n1NC(=S)Nc1ccccc1
inactive: [1] > 100 µM | [3] > 100 µM | [4] > 100 µM | [5] > 100 µM | [6] > 100 µM | [7] 37.7 µM | [8] > 100 µM | [10] 91.2 µM | [11] > 100 µM | [18] > 100 µM | [13] > 100 µM | [14] > 100 µM | [15] > 100 µM | [16] > 100 µM | [17] > 100 µM

Cc1ccc(C(=O)Cc2nc3c([nH]c2=O)c(C)nn3-c2ccccc2)c(C)c1
inactive: [1] > 10 µM | [2] > 10 µM | [3] > 10 µM | [19] > 10 µM | [4] > 10 µM | [5] > 10 µM | [6] > 10 µM | [8] > 10 µM | [9] 6.53 µM | [10] 2.29 µM | [11] 8.22 µM | [12] > 10 µM | [18] > 10 µM | [13] > 10 µM | [15] 6.59 µM | [16] > 10 µM | [17] > 10 µM

CC(C)(C)OC(=O)N1N=CCC1c1ccccc1 (stereo unspecified)
inactive: [1] > 100 µM | [2] > 100 µM | [3] > 100 µM | [19] > 100 µM | [4] > 100 µM | [7] > 100 µM | [8] > 100 µM | [9] > 100 µM | [11] > 100 µM | [18] > 100 µM | [13] > 100 µM | [15] > 100 µM | [16] > 100 µM | [17] > 100 µM

Nc1ncnc2c1nc(Cl)n2C1OC2COP(=O)(O)OC2C1O (stereo unspecified)
inactive: [1] 4.99 µM | [2] 6.67 µM | [3] 4.57 µM | [19] 19.6 µM | [4] 41.6 µM | [5] 2.81 µM | [6] 37 µM | [7] 3.41 µM | [8] 3.63 µM | [9] 8.39 µM | [10] 24.2 µM | [11] 3.9 µM | [18] > 51.8 µM | [13] 26.8 µM | [14] > 100 µM | [15] 3.47 µM | [16] 18.9 µM | [17] 10.4 µM

CC(=O)OCC1OC(Oc2cc(C)c(O)cc2C/C=C(\C)CC/C=C(\C)CC(=O)CC(C)C)C(O)C(OC(C)=O)C1OC(C)=O (stereo unspecified)
inactive: [1] 14.2 µM | [2] 23.3 µM | [3] 6 µM | [19] 11.9 µM | [4] 12.5 µM | [5] 9.23 µM | [6] > 50 µM | [8] 13.6 µM | [9] 11.4 µM | [10] 19.6 µM | [11] 16.9 µM | [12] 14.2 µM | [18] 21.2 µM | [14] 10.2 µM | [15] 11 µM | [16] 12.1 µM | [17] 13 µM

Oc1nncc2[nH]c(-c3ccccc3)cc12
inactive: [1] 46.3 µM | [2] 79.8 µM | [3] 36.4 µM | [4] 35.1 µM | [5] 17 µM | [6] 56.9 µM | [7] 86.1 µM | [9] 25.2 µM | [10] 55.1 µM | [11] 78.7 µM | [12] 30.1 µM | [18] 39.4 µM | [14] 29.6 µM | [15] 64.4 µM | [16] 30.5 µM | [17] 33.9 µM

CC(C)(O)C1CC(=O)C(C)(C2C(O)CC3(C)C4CC=C5C(CCC(O)C5(C)C)C4(C)C(=O)CC23C)O1 (stereo unspecified)
inactive: [1] > 100 µM | [2] > 100 µM | [3] > 100 µM | [19] > 100 µM | [4] > 100 µM | [5] > 100 µM | [7] > 100 µM | [8] > 100 µM | [10] > 100 µM | [11] > 100 µM | [12] > 100 µM | [18] > 100 µM | [13] > 100 µM | [14] > 100 µM | [15] > 100 µM | [16] > 100 µM | [17] > 100 µM
